As a reminder, the AC50 is the concentration at which the activity in the assay is half-maximal. The IC50 is the concentration needed to halve the response being measured.

SMILES strings stand for the structures.

The first assay deals with T1, pure recombinant PKM2 (Homo sapiens, UniProt P14618).
T1 construct: gene PKM; PKM2 cDNA in pQE-30, 6xHis tag (removal not mentioned), expressed in E. coli M15 (pREP4), Ni-NTA purified
T1 sequence (P14618 2-531): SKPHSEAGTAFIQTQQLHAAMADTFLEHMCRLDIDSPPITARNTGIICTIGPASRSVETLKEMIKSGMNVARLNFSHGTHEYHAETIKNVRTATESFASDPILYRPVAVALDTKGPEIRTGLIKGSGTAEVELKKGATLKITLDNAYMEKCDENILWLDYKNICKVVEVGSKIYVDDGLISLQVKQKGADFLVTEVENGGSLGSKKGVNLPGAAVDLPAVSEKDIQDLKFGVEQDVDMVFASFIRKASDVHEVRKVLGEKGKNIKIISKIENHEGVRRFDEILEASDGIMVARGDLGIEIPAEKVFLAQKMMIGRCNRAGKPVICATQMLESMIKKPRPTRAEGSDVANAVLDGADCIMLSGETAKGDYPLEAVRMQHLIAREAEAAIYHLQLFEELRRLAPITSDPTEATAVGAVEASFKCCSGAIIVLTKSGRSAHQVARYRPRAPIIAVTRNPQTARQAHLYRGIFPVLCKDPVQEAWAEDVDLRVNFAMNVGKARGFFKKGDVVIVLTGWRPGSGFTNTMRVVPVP
The assay is described as follows: LDH-coupled pyruvate kinase assay, NADH absorbance […] nm. The format is biochemical. The note with it: 0.2 mM PEP, 2 mM ADP, 5 mM MgCl2, 100 mM KCl, pH 7.4, 37 °C; no inhibitor mixture; allosteric activator.
With `N[C@@H](CO)C(=O)O` [Serine], the AC50 stood at 339 ± 123 µM. The same measure, in the same setting: in the case of `O=P(O)(O)OC[C@H]1OC(O)(COP(=O)(O)O)[C@@H](O)[C@@H]1O` (stereo partly drawn) [FBP] it was 0.0434 ± 0.0217 µM.

A further assay deals with T1, pure recombinant PKM2. Described as above. It is filed as biochemical. The note with it: 0.2 mM PEP, 2 mM ADP, 5 mM MgCl2, 100 mM KCl, pH 7.4, 37 °C; no FBP; allosteric inhibitor.
Regarding `C[C@H](N)C(=O)O` [Alanine], the IC50 was 227 ± 174 µM. On the same count and under the same terms, in the case of `N[C@@H](Cc1c[nH]c2ccccc12)C(=O)O` [Tryptophan] it was 254 ± 104 µM; in that of `CC(C)[C@H](N)C(=O)O` [Valine], 373 ± 175 µM. On the same count and under the same terms, in the case of `N[C@@H](Cc1ccccc1)C(=O)O` [Phenylalanine] it was 40.9 ± 13.4 µM.

The values are drawn from doi:10.1101/2022.07.07.499167v1, “The thermodynamic state of aerobic glycolytic flux plays a critical role in stabilizing aerobic glycolytic flux of cancer cells” (biorxiv, 2022).
